In patent publication US20260315464A1, “COMPOSITIONS, METHODS, AND SYSTEMS FOR MODULATING SPLICING OF MSH3” (REVIR THERAPEUTICS, INC., priority 2023, published 2026) one finds mrna remaining and EC50 data, which are given here for 21 compounds.

SMILES strings stand for the structures.

For this test, the system named is MSH3. The experiment in a line: QPCR assay for levels of MSH3 upon compound treatment in HEK293T or AD293 cells (fold-change of MSH3 transcript, EC50 of MSH3 downregulation; total MSH3 exons 13/14, exons 20/21; Table 8). It counts as cell-based. The conditions noted are these: for mrna remaining at 1 µM / mrna remaining at 10 µM: Homo sapiens, fold-change of the MSH3 transcript, normalized to GAPDH; for mrna remaining at 1 µM: 1 μM compound; for mrna remaining at 10 µM: 10 μM compound; for EC50: EC50 of MSH3 downregulation, XtalPi. In short, it runs like this:
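MSH3 mRNA was quantified by TaqMan qPCR covering exons 13/14, exons 20/21, exon 13/PE14A and exon 20/PE21A, with GAPDH as reference. Cells used were HEK293T or AD293, treated with compound at 1 μM and […].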

`Cc1nn(C)cc1-c1cc2c(cn1)CN(c1ccc(O[C@H]3C[C@]4(C)CC[C@](C)(C3)N4C)nn1)C2=O` [Compound 94, 6-(1,3-dimethyl-1H-pyrazol-4-yl)-2-(6-(((1R,3s,5S)-1,5,8-trimethyl-8-azabicyclo[3.2.1]octan-3-yl)oxy)pyridazin-3-yl)-2,3-dihydro-1H-pyrrolo[3,4-c]pyridin-1-one]: the mrna remaining at 1 µM came out at 106% and the mrna remaining at 10 µM worked out at 79%.
On to `CC(C)(O)Cn1ncc(-c2cc(F)c3c(c2)C(=O)N(c2ccc(OC4CC(C)(C)NC(C)(C)C4)nn2)C3)n1` [Compound 635, 4-fluoro-6-(2-(2-hydroxy-2-methylpropyl)-2H-1,2,3-triazol-4-yl)-2-(6-((2,2,6,6-tetramethylpiperidin-4-yl)oxy)pyridazin-3-yl)isoindolin-1-one], for which the mrna remaining at 1 µM is 54% and the mrna remaining at 10 µM worked out at 117%.
The corresponding values for `Cc1nn(C)cc1-c1cnc2c(c1)C(=O)N(c1ccc(N3CCN[C@@H](C(C)C)C3)nn1)C2` [Compound 602, (S)-3-(1,3-dimethyl-1H-pyrazol-4-yl)-6-(6-(3-isopropylpiperazin-1-yl)pyridazin-3-yl)-6,7-dihydro-5H-pyrrolo[3,4-b]pyridin-5-one] are 64% and 29%.
Regarding `CN(c1ccc(N2Cc3ncc(-c4nnn(C)n4)cc3C2=O)nn1)[C@H]1C[C@]2(C)CC[C@](C)(C1)N2` [Compound 612, 6-(6-(((1R,3s,5S)-1,5-dimethyl-8-azabicyclo[3.2.1]octan-3-yl)(methyl)amino)pyridazin-3-yl)-3-(2-methyl-2H-tetrazol-5-yl)-6,7-dihydro-5H-pyrrolo[3,4-b]pyridin-5-one], the mrna remaining at 1 µM turned out to be 109% and the mrna remaining at 10 µM was determined as 15%.
With `Cc1nn(C)nc1-c1cc(C#N)c2c(c1)C(=O)N(c1ccc(N(C)[C@H]3C[C@]4(C)CC[C@](C)(C3)N4)nn1)C2` [Compound 676, 6-(2,5-dimethyl-2H-1,2,3-triazol-4-yl)-2-(6-(((1R,3s,5S)-1,5-dimethyl-8-azabicyclo[3.2.1]octan-3-yl)(methyl)amino)pyridazin-3-yl)-1-oxoisoindoline-4-carbonitrile], the mrna remaining at 1 µM came to 48% and the mrna remaining at 10 µM came out at 17%.
In the same order, the values of `Cc1nn(C)cc1-c1cnc2c(c1)C(=O)N(c1ccc(O[C@@H]3CC(C)(C)NC(C)(C)[C@@H]3F)nn1)C2` [Compound 211, 3-(1,3-dimethyl-1H-pyrazol-4-yl)-6-(6-(((3S,4R)-3-fluoro-2,2,6,6-tetramethylpiperidin-4-yl)oxy)pyridazin-3-yl)-6,7-dihydro-5H-pyrrolo[3,4-b]pyridin-5-one] are 90% and 55%.
For `C[C@@H]1CN(c2ccc(N3Cc4ncc(-c5nn(C)nc5Cl)cc4C3=O)nn2)[C@@H](C)CN1` [Compound 614, 3-(5-chloro-2-methyl-2H-1,2,3-triazol-4-yl)-6-(6-((2S,5R)-2,5-dimethylpiperazin-1-yl)pyridazin-3-yl)-6,7-dihydro-5H-pyrrolo[3,4-b]pyridin-5-one], the mrna remaining at 1 µM stood at 107% and the mrna remaining at 10 µM was 79%.
Take `Cc1nn(C)nc1-c1cc(F)c2c(c1)C(=O)N(c1ccc(O[C@H]3C[C@]4(C)CC[C@](C)(C3)N4)nn1)C2` [Compound 283, 6-(2,5-dimethyl-2H-1,2,3-triazol-4-yl)-2-(6-(((1R,3s,5S)-1,5-dimethyl-8-azabicyclo[3.2.1]octan-3-yl)oxy)pyridazin-3-yl)-4-fluoroisoindolin-1-one]: the EC50 (in general, the concentration giving half of the maximal effect) came out at 799 nM; the mrna remaining at 1 µM amounted to 48%; the mrna remaining at 10 µM came out at 11%.
For the compound `Cc1nc(C)c(-c2cnc3c(c2)C(=O)N(c2ccc(O[C@H]4C[C@]5(C)CC[C@](C)(C4)N5)nn2)C3)s1` [Compound 174, 6-(6-(((1R,3s,5S)-1,5-dimethyl-8-azabicyclo[3.2.1]octan-3-yl)oxy)pyridazin-3-yl)-3-(2,4-dimethylthiazol-5-yl)-6,7-dihydro-5H-pyrrolo[3,4-b]pyridin-5-one], the mrna remaining at 1 µM is 103% and the mrna remaining at 10 µM amounted to 62%.
In the case of `Cc1nn(C)cc1-c1cnc2c(c1)C(=O)N(c1ccc(O[C@@H]3C[C@@]4(C)CC[C@](C)(N4)[C@@H]3F)nn1)C2` [Compound 214, 3-(1,3-dimethyl-1H-pyrazol-4-yl)-6-(6-(((1S,2S,3R,5R)-2-fluoro-1,5-dimethyl-8-azabicyclo[3.2.1]octan-3-yl)oxy)pyridazin-3-yl)-6,7-dihydro-5H-pyrrolo[3,4-b]pyridin-5-one], the mrna remaining at 1 µM was 95% and the mrna remaining at 10 µM was found to be 24%.
On to `Cc1nn(C)nc1-c1cc2c(cn1)CN(c1ccc(O[C@H]3C[C@]4(C)CC[C@](C)(C3)N4)nn1)C2=O` [Compound 96, 6-(2,5-dimethyl-2H-1,2,3-triazol-4-yl)-2-(6-(((1R,3s,5S)-1,5-dimethyl-8-azabicyclo[3.2.1]octan-3-yl)oxy)pyridazin-3-yl)-2,3-dihydro-1H-pyrrolo[3,4-c]pyridin-1-one], for which the mrna remaining at 1 µM worked out at 79% and the mrna remaining at 10 µM is 119%.
As for `CN(c1ccc(N2Cc3c(Cl)cc(-c4nn(C)nc4Cl)cc3C2=O)nn1)[C@H]1C[C@]2(C)CC[C@](C)(C1)N2` [Compound 679, 4-chloro-6-(5-chloro-2-methyl-2H-1,2,3-triazol-4-yl)-2-(6-(((1R,3s,5S)-1,5-dimethyl-8-azabicyclo[3.2.1]octan-3-yl)(methyl)amino)pyridazin-3-yl)isoindolin-1-one], the mrna remaining at 1 µM came out at 95% and the mrna remaining at 10 µM was 34%.
As to `Cc1nn(C)cc1-c1cc2c(cn1)CN(c1ccc(O[C@@H]3C[C@@]4(C)CC[C@](C)(N4)[C@@H]3F)nn1)C2=O` [Compound 79, 6-(1,3-dimethyl-1H-pyrazol-4-yl)-2-(6-(((1S,2S,3R,5R)-2-fluoro-1,5-dimethyl-8-azabicyclo[3.2.1]octan-3-yl)oxy)pyridazin-3-yl)-2,3-dihydro-1H-pyrrolo[3,4-c]pyridin-1-one], the mrna remaining at 1 µM turned out to be 92% and the mrna remaining at 10 µM is 31%.
The corresponding values for `CN(c1ncc(N2Cc3ccc(-c4cnn(C)n4)cc3C2=O)nn1)[C@H]1C[C@]2(C)CC[C@](C)(C1)N2` [Compound 429, 2-(3-(((1R,3s,5S)-1,5-dimethyl-8-azabicyclo[3.2.1]octan-3-yl)(methyl)amino)-1,2,4-triazin-6-yl)-6-(2-methyl-2H-1,2,3-triazol-4-yl)isoindolin-1-one] are 102% and 52%.
For `Cn1cc(-c2cnc3c(c2)C(=O)N(c2ccc(O[C@H]4C[C@]5(C)CC[C@](C)(C4)N5)nn2)C3)c(C(F)(F)F)n1` [Compound 201, 6-(6-(((1R,3s,5S)-1,5-dimethyl-8-azabicyclo[3.2.1]octan-3-yl)oxy)pyridazin-3-yl)-3-(1-methyl-3-(trifluoromethyl)-1H-pyrazol-4-yl)-6,7-dihydro-5H-pyrrolo[3,4-b]pyridin-5-one], the mrna remaining at 1 µM was 90% and the mrna remaining at 10 µM is 91%.
As for `Cc1nn(C)cc1-c1cnc2c(c1)C(=O)N(c1ccc(OC3CCC(C)(C)NC(C)(C)C3)nn1)C2` (stereo not shown) [Compound 479, 3-(1,3-dimethyl-1H-pyrazol-4-yl)-6-(6-((2,2,7,7-tetramethylazepan-4-yl)oxy)pyridazin-3-yl)-6,7-dihydro-5H-pyrrolo[3,4-b]pyridin-5-one], the mrna remaining at 1 µM amounted to 119% and the mrna remaining at 10 µM is 56%.
Regarding `CN(c1ccc(N2Cc3c(C#N)cc(-c4nn(C)nc4Cl)cc3C2=O)nn1)C1C[C@]2(C)CC[C@](C)(C1)N2` (stereo partly drawn) [Compound 685, 6-(5-chloro-2-methyl-2H-1,2,3-triazol-4-yl)-2-(6-(((1R,5S)-1,5-dimethyl-8-azabicyclo[3.2.1]octan-3-yl)(methyl)amino)pyridazin-3-yl)-1-oxoisoindoline-4-carbonitrile], the mrna remaining at 1 µM is 24% and the mrna remaining at 10 µM amounted to 20%.
Compound `CN(c1ccc(N2Cc3ncc(-c4nn(C)nc4Cl)cc3C2=O)nn1)C1CC(C)(C)NC2(CCC2)C1` (stereo not shown) [Compound 621, 3-(5-chloro-2-methyl-2H-1,2,3-triazol-4-yl)-6-(6-((6,6-dimethyl-5-azaspiro[3.5]nonan-8-yl)(methyl)amino)pyridazin-3-yl)-6,7-dihydro-5H-pyrrolo[3,4-b]pyridin-5-one] gave an EC50 of 229 nM.
Turning to `Cn1cc(-c2cc3c(cn2)CN(c2ccc(O[C@H]4C[C@]5(C)CC[C@](C)(C4)N5)nn2)C3=O)c(Cl)n1` [Compound 458, 6-(3-chloro-1-methyl-1H-pyrazol-4-yl)-2-(6-(((1R,3s,5S)-1,5-dimethyl-8-azabicyclo[3.2.1]octan-3-yl)oxy)pyridazin-3-yl)-2,3-dihydro-1H-pyrrolo[3,4-c]pyridin-1-one], it took 820 nM to reach a half-maximal effect (EC50), the mrna remaining at 1 µM worked out at 40% and the mrna remaining at 10 µM turned out to be 11%.
In the case of `Cc1nc(C)c(-c2cnc3c(c2)C(=O)N(c2cnc(N(C)[C@H]4C[C@]5(C)CC[C@](C)(C4)N5)nn2)C3)s1` [Compound 200, 6-(3-(((1R,3s,5S)-1,5-dimethyl-8-azabicyclo[3.2.1]octan-3-yl)(methyl)amino)-1,2,4-triazin-6-yl)-3-(2,4-dimethylthiazol-5-yl)-6,7-dihydro-5H-pyrrolo[3,4-b]pyridin-5-one], the mrna remaining at 1 µM is 53% and the mrna remaining at 10 µM stood at 53%.
Regarding `CN(c1ccc(N2Cc3cnc(-c4cnn(C)n4)cc3C2=O)nn1)[C@H]1C[C@]2(C)CC[C@](C)(C1)N2` [Compound 70, 2-(6-(((1R,3s,5S)-1,5-dimethyl-8-azabicyclo[3.2.1]octan-3-yl)(methyl)amino)pyridazin-3-yl)-6-(2-methyl-2H-1,2,3-triazol-4-yl)-2,3-dihydro-1H-pyrrolo[3,4-c]pyridin-1-one], the mrna remaining at 1 µM is 139% and the mrna remaining at 10 µM came to 56%.
